For this experiment, the system named is Escherichia coli ATCC 25922. Description: Minimal Inhibitory Concentration (MIC) determination, broth microdilution. The following applies: ATCC25922; strain Escherichia coli ATCC 25922; broth microdilution per CLSI M07-A10; 18-24 hours at 35±2° C.; lowest concentration for complete growth inhibition. The experiment is classed as cell-based. The protocol:
Minimal Inhibitory Concentration (MIC) Determination:
The MIC of antibacterial compounds against multiple species and strains was determined using the broth microdilution method according to M07-A10 Clinical and Laboratory Standards Institute (CLSI) guidelines, using the appropriate broth medium. In short, the compound plates were prepared by dispensing 100 μL of each stock solution in the first well of a 96 well microtiter plate (MTP) at a concentration 100-fold higher than the final concentration desired in broth. Eleven serial 2-fold dilutions of the highest concentration were made in DMSO for new compounds and in water (or appropriate solution) for reference compounds [2]. 1 μL of each well was transferred in a new MTP, which served as the test plate by subsequent inoculation. This bacterial suspension was prepared from strains that were first sub-cultured on agar plates and incubated for 18-24 hours as appropriate. Following incubation, the inoculum was prepared from isolated colonies and adjusted to 0.5 McFarland turbidity standard (1 to 2×10^8 Colony Forming Units (CFU)/mL) in 0.9% saline. The bacterial suspension was then diluted 1:200 in appropriate sterile medium and within 15 minutes 100 μL/well were dispensed. Negative controls (lack of bacterial cells) and growth control wells (lack of compound) were included in all plates. MTPs were incubated for 18-24 hours at 35±2° C. in ambient air. The MIC value of each compound, expressed as μg/mL, was determined as the lowest concentration required for complete growth inhibition (no visible growth). • [1] CLSI (2015) Methods for dilution antimicrobial susceptibility tests for bacteria that grow aerobically; Approved Standard, Tenth Edition. CLSI Document M7-A10 (ISBN 1-56238-987-4). Wayne, PA: Clinical and Laboratory Standards Institute, 19087, USA. • [2] CLSI (2017) Performance Standards for Antimicrobial Susceptibility Testing; Twenty-Fifth Informational Supplement. CLSI Document M100-S27, CLSI, Wayne, Pennsylvania 19087, USA.
Table 1 provides the Minimal Inhibitory Concentrations (MIC) in micrograms per millilitre of the compounds of present invention obtained against the strain Escherichia coli ATCC 25922.

In brackets after ≈: the same amount, converted by molar mass.

Broadly, the MIC is the lowest concentration that inhibits growth of the organism. A high value points to a need for much substance. For the compound `Cc1cc(NC(=O)CN2CCC2)nc2c1CC(CNCCC1CN(c3cnc4c(n3)NC(=O)CO4)C(=O)O1)C2` (stereo not shown) [Example 26, 2-(azetidin-1-yl)-N-[4-methyl-6-[[2-[2-oxo-3-(3-oxo-4H-pyrazino[2,3-b][1,4]oxazin-6-yl)oxazolidin-5-yl]ethylamino]methyl]-6,7-dihydro-5H-cyclopenta[b]pyridin-2-yl]acetamide], the MIC is 0.5 µg/mL (≈ 0.932 µM). As to `Cc1cc(NC(=O)[C@@H]2CCCN2C)nc2c1CC(CNCCC1CN(c3cnc4c(n3)NC(=O)CO4)C(=O)O1)C2` (stereo partly drawn) [Example 27, (2S)-1-methyl-N-[4-methyl-6-[[2-[2-oxo-3-(3-oxo-4H-pyrazino[2,3-b][1,4]oxazin-6-yl)oxazolidin-5-yl]ethylamino]methyl]-6,7-dihydro-5H-cyclopenta[b]pyridin-2-yl]pyrrolidine-2-carboxamide], the minimum inhibitory concentration (MIC) was 1 µg/mL (≈ 1.82 µM). The compound `Cc1nc(NC(=O)[C@@H](C)N(C)C)cc2c1CC(CNCCC1CN(c3cnc4c(n3)NC(=O)CO4)C(=O)O1)C2` (stereo partly drawn) [Example 28, (2R)-2-(dimethylamino)-N-[1-methyl-6-[[2-[2-oxo-3-(3-oxo-4H-pyrazino[2,3-b][1,4]oxazin-6-yl)oxazolidin-5-yl]ethylamino]methyl]-6,7-dihydro-5H-cyclopenta[c]pyridin-3-yl]propanamide] gave an MIC of 0.5 µg/mL (≈ 0.928 µM).

In the case of `Cc1nc(NC(=O)[C@@H](C)N(C)C)cc2c1CC(CN1CCC3(CC1)CN(c1cnc4c(n1)NC(=O)CO4)C(=O)O3)C2` (stereo partly drawn) [Example 29, (2R)-2-(dimethylamino)-N-[1-methyl-6-[[2-oxo-3-(3-oxo-4H-pyrazino[2,3-b][1,4]oxazin-6-yl)-1-oxa-3,8-diazaspiro[4.5]decan-8-yl]methyl]-6,7-dihydro-5H-cyclopenta[c]pyridin-3-yl]propanamide], the MIC came to 0.5 µg/mL (≈ 0.886 µM). In turn, `C[C@H](C(=O)Nc1cc(F)c2c(c1F)CC(O)(CNCC1CN(c3cnc4c(n3)NC(=O)CO4)C(=O)O1)C2)N(C)C` (stereo partly shown) [Example 30] registered an MIC of 1 µg/mL (≈ 1.78 µM).

`COC1(CNCC2CN(c3cnc4c(n3)NC(=O)CO4)C(=O)O2)Cc2c(F)cc(NC(=O)[C@@H](C)N(C)C)c(F)c2C1` (stereo partly shown) [Example 31]: the MIC came out at 4 µg/mL (≈ 6.95 µM). Compound `C[C@H](C(=O)Nc1cc(F)c2c(c1)CC(F)(CNCCC1CN(c3cnc4c(n3)NC(=O)CO4)C(=O)O1)C2)N(C)C` (stereo partly drawn) [Example 33, (2R)-N-[2,7-difluoro-2-[[2-[2-oxo-3-(3-oxo-4H-pyrazino[2,3-b][1,4]oxazin-6-yl)oxazolidin-5-yl]ethylamino]methyl]indan-5-yl]-2-(dimethylamino)propanamide] registered an MIC of 0.5 µg/mL (≈ 0.894 µM). In the case of `C[C@H](C(=O)Nc1cc(C#N)c2c(c1)CC(O)(CNCCC1CN(c3cnc4c(n3)NC(=O)CO4)C(=O)O1)C2)N(C)C` (stereo partly drawn) [Example 34, (2R)-N-[7-cyano-2-hydroxy-2-[[2-[2-oxo-3-(3-oxo-4H-pyrazino[2,3-b][1,4]oxazin-6-yl)oxazolidin-5-yl]ethylamino]methyl]indan-5-yl]-2-(dimethylamino)propanamide], the MIC amounted to 4 µg/mL (≈ 7.08 µM). Compound `C[C@H](C(=O)Nc1cc(C#N)c2c(c1)CC(O)(CN1CCC3(CC1)CN(c1cnc4c(n1)NC(=O)CO4)C(=O)O3)C2)N(C)C` (stereo partly drawn) [Example 35, (2R)-N-[7-cyano-2-hydroxy-2-[[2-oxo-3-(3-oxo-4H-pyrazino[2,3-b][1,4]oxazin-6-yl)-1-oxa-3,8-diazaspiro[4.5]decan-8-yl]methyl]indan-5-yl]-2-(dimethylamino)propanamide] came in with an MIC of 1 µg/mL (≈ 1.69 µM). `O=C1COc2ncc(N3CC(CCNCC4Cc5cc(NC(=O)[C@@H]6CCCN6)cc(F)c5C4)OC3=O)nc2N1` (stereo partly drawn) [Example 36, (2S)—N-[7-Fluoro-2-[[2-[2-oxo-3-(3-oxo-4H-pyrazino[2,3-b][1,4]oxazin-6-yl)oxazolidin-5-yl]ethylamino]methyl]indan-5-yl]pyrrolidine-2-carboxamide] returned an MIC of 0.25 µg/mL (≈ 0.463 µM).

Regarding `O=C1COc2ncc(N3CC(CCNCC4Cc5cc(NC(=O)[C@@H]6C[C@@H](O)CN6)cc(F)c5C4)OC3=O)nc2N1` (stereo partly drawn) [Example 37, (2S,4R)-N-[7-fluoro-2-[[2-[2-oxo-3-(3-oxo-4H-pyrazino[2,3-b][1,4]oxazin-6-yl)oxazolidin-5-yl]ethylamino]methyl]indan-5-yl]-4-hydroxy-pyrrolidine-2-carboxamide], the MIC amounted to 0.5 µg/mL (≈ 0.9 µM). For the compound `N[C@H](CO)C(=O)Nc1cc(F)c2c(c1)CC(CNCCC1CN(c3cnc4c(n3)NC(=O)CO4)C(=O)O1)C2` (stereo partly drawn) [Example 38, (2R)-2-amino-N-[7-fluoro-2-[[2-[2-oxo-3-(3-oxo-4H-pyrazino[2,3-b][1,4]oxazin-6-yl)oxazolidin-5-yl]ethylamino]methyl]indan-5-yl]-3-hydroxy-propanamide], the MIC is 0.5 µg/mL (≈ 0.944 µM). Compound `COC[C@@H](N)C(=O)Nc1cc(F)c2c(c1)CC(CNCCC1CN(c3cnc4c(n3)NC(=O)CO4)C(=O)O1)C2` (stereo partly drawn) [Example 39, (2R)-2-amino-N-[7-fluoro-2-[[2-[2-oxo-3-(3-oxo-4H-pyrazino[2,3-b][1,4]oxazin-6-yl)oxazolidin-5-yl]ethylamino]methyl]indan-5-yl]-3-methoxy-propanamide] registered an MIC of 0.5 µg/mL (≈ 0.92 µM). `N[C@]1(C(=O)Nc2cc(F)c3c(c2)CC(CNCCC2CN(c4cnc5c(n4)NC(=O)CO5)C(=O)O2)C3)CCOC1.O=C(O)C(F)(F)F` (stereo partly drawn) [Example 40, (3R)-3-amino-N-[7-fluoro-2-[[2-[2-oxo-3-(3-oxo-4H-pyrazino[2,3-b][1,4]oxazin-6-yl)oxazolidin-5-yl]ethylamino]methyl]indan-5-yl]tetrahydrofuran-3-carboxamide; 2,2,2-trifluoroacetic acid]: the MIC amounted to 0.25 µg/mL.

In turn, `Cl.N[C@@]1(C(=O)Nc2cc(F)c3c(c2)CC(CNCCC2CN(c4cnc5c(n4)NC(=O)CO5)C(=O)O2)C3)CCOC1` (stereo partly drawn) [Example 41, (3S)-3-amino-N-[7-fluoro-2-[[2-[2-oxo-3-(3-oxo-4H-pyrazino[2,3-b][1,4]oxazin-6-yl)oxazolidin-5-yl]ethylamino]methyl]indan-5-yl]tetrahydrofuran-3-carboxamide; hydrochloride] had an MIC of 1 µg/mL. As for `O=C1COc2ncc(N3CC4(CCN(CC5Cc6cc(NC(=O)[C@@H]7C[C@@H](O)CN7)cc(F)c6C5)CC4)OC3=O)nc2N1` (stereo partly drawn) [Example 42, (2S,4R)—N-[7-fluoro-2-[[2-oxo-3-(3-oxo-4H-pyrazino[2,3-b][1,4]oxazin-6-yl)-1-oxa-3,8-diazaspiro[4.5]decan-8-yl]methyl]indan-5-yl]-4-hydroxy-pyrrolidine-2-carboxamide], the MIC came to 0.125 µg/mL (≈ 0.215 µM). As for `CC(C)(N)C(=O)Nc1cc(F)c2c(c1)CC(CNCCC1CN(c3cnc4c(n3)NC(=O)CO4)C(=O)O1)C2` (stereo not shown) [Example 43, 2-amino-N-[7-fluoro-2-[[2-[2-oxo-3-(3-oxo-4H-pyrazino[2,3-b][1,4]oxazin-6-yl)oxazolidin-5-yl]ethylamino]methyl]indan-5-yl]-2-methyl-propanamide], the figure is 0.25 µg/mL (≈ 0.474 µM); as for `CO[C@H]1CN[C@H](C(=O)Nc2cc(F)c3c(c2)CC(CNCCC2CN(c4cnc5c(n4)NC(=O)CO5)C(=O)O2)C3)C1` (stereo partly drawn) [Example 44, (2S,4R)-N-[7-fluoro-2-[[2-[2-oxo-3-(3-oxo-4H-pyrazino[2,3-b][1,4]oxazin-6-yl)oxazolidin-5-yl]ethylamino]methyl]indan-5-yl]-4-methoxy-pyrrolidine-2-carboxamide], 1 µg/mL (≈ 1.76 µM); as for `O=C1COc2ncc(N3CC(CCNCC4Cc5cc(NC(=O)[C@H]6C[C@@H](O)CN6)cc(F)c5C4)OC3=O)nc2N1` (stereo partly shown) [Example 45], 1 µg/mL (≈ 1.8 µM). As for `O=C1COc2ncc(N3CC(CCNCC4Cc5cc(NC(=O)[C@@H]6C[C@H](O)CN6)cc(F)c5C4)OC3=O)nc2N1` (stereo partly drawn) [Example 46, (2S,4S)-N-[7-fluoro-2-[[2-[2-oxo-3-(3-oxo-4H-pyrazino[2,3-b][1,4]oxazin-6-yl)oxazolidin-5-yl]ethylamino]methyl]indan-5-yl]-4-hydroxy-pyrrolidine-2-carboxamide], the figure is 0.5 µg/mL (≈ 0.9 µM). As to `O=C1COc2ncc(N3CC(CCNCC4Cc5cc(NC(=O)[C@H]6C[C@H](O)CN6)cc(F)c5C4)OC3=O)nc2N1` (stereo partly drawn) [Example 47, (2R,4S)-N-[7-fluoro-2-[[2-[2-oxo-3-(3-oxo-4H-pyrazino[2,3-b][1,4]oxazin-6-yl)oxazolidin-5-yl]ethylamino]methyl]indan-5-yl]-4-hydroxy-pyrrolidine-2-carboxamide], the MIC stood at 0.25 µg/mL (≈ 0.45 µM). Compound `N[C@@H](CC(=O)O)C(=O)Nc1cc(F)c2c(c1)CC(CNCCC1CN(c3cnc4c(n3)NC(=O)CO4)C(=O)O1)C2.O=C(O)C(F)(F)F` (stereo partly drawn) [Example 48, (3S)-3-amino-4-[[7-fluoro-2-[[2-[2-oxo-3-(3-oxo-4H-pyrazino[2,3-b][1,4]oxazin-6-yl)oxazolidin-5-yl]ethylamino]methyl]indan-5-yl]amino]-4-oxo-butanoic acid; 2,2,2-trifluoroacetic acid] yielded an MIC of 4 µg/mL.
